According to patent publication US20170233413A1, “SUBSTITUTED ANNULATED PYRIMIDINES AND USE THEREOF” (Bayer Pharma Aktiengesellschaft, priority 2014, published 2017):

Experiments:
[1] = target: T1, recombinant guanylate cyclase reporter cell line (Rattus norvegicus, UniProt P19686+P20595); test: Effect on a recombinant guanylate cyclase reporter cell line; assay type: cell-based; conditions: MEC = minimum effective concentration; in some cases means of individual determinations
T1 construct: expressed in transfected cells
T1 sequence (P19686 1-690): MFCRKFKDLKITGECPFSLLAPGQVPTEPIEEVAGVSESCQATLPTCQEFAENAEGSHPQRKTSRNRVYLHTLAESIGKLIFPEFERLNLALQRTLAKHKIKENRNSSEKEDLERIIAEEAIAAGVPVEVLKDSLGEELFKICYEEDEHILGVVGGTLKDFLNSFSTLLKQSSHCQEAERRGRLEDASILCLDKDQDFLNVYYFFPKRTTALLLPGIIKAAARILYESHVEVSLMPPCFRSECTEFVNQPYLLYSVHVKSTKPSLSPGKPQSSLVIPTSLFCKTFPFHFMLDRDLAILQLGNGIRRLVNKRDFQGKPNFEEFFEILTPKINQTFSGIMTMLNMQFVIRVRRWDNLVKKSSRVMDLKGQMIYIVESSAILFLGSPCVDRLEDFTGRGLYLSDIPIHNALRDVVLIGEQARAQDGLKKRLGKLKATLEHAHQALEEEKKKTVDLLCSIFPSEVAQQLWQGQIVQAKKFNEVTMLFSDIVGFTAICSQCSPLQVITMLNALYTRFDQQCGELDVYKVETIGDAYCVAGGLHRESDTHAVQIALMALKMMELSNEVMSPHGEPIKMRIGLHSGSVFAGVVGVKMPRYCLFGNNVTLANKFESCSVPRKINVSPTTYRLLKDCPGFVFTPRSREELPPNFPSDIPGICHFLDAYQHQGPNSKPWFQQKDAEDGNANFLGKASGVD
T1 sequence (P20595 1-619): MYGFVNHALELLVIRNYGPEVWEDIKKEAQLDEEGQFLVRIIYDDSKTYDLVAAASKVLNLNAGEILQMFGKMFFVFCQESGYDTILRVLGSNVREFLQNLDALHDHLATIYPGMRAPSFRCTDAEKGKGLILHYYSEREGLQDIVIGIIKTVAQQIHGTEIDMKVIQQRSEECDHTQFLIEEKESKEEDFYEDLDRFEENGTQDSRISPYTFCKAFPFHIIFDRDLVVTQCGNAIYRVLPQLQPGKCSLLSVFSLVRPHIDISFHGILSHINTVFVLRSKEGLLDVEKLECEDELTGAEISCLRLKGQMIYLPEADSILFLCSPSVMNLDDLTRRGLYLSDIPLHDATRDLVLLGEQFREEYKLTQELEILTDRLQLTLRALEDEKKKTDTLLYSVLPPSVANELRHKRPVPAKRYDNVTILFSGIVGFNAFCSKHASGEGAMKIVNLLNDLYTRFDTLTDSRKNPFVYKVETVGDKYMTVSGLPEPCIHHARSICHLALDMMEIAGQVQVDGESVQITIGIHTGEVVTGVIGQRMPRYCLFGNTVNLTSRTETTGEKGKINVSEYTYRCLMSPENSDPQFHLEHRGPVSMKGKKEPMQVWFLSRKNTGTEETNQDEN
Procedure, shortened: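 Cellular activity measured in a recombinant rat soluble guanylate cyclase reporter cell line. Values are minimum effective concentration (MEC), some given as means of individual determinations.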

[2] = target: T2, human phosphodiesterase 5 (PDE 5) (Homo sapiens, UniProt O76074); test: Inhibition of human phosphodiesterase 5 (PDE 5); assay type: biochemical; conditions: PDE 5 preparation from human platelets; in some cases means of individual determinations
T2 construct: PDE 5 preparations are obtained from human platelets by disruption; from tissue; host or cells: human platelets
Procedure, shortened: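 Enzyme partially purified from human platelets by Mono Q ion exchange, diluted so that under 70% of substrate converts. [8-3H]cGMP at 0.025 μCi per well in Tris pH 7.5 with MgCl2/EDTA, 60 min at room temperature, yttrium SPA bead read-out. Final compound concentrations 4–0.0018 μM; IC50 from concentration–inhibition plot.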

MEC [1]: 0.3 µM
IC50 [2]: 31 nM
SMILES: CC1(C)C(=O)Nc2nc(-c3nn(Cc4ccccc4F)c4ncccc34)nc(C(=O)NCC3CCOC3)c21 (racemic) [Example 99, rac-2-[1-(2-fluorobenzyl)-1H-pyrazolo[3,4-b]pyridin-3-yl]-5,5-dimethyl-6-oxo-N-(tetrahydrofuran-3-ylmethyl)-6,7-dihydro-5H-pyrrolo[2,3-d]pyrimidine-4-carboxamide]
